# Test results taken from patent US20190282673A1, “STAPHTAME ACTIVITY ON BIOFILMS” (priority 2016, published 2019).
# Tests used:
# [1] = tested on: S. epidermidis, S. lugdunensis and S. haemolyticus biofilms; test: CoNS biofilm eradication, crystal violet staining; assay type: cell-based; conditions: 250 and 100 μg/mL for 4 h, all three CoNS
# Description: Dis. 209:1469-78 was followed. Briefly, S. epidermidis, S. lugdunensis and S. haemolyticus strains were inoculated into TSB with 2% glucose and the cultures were grown overnight. The cultures were diluted 1:50 in TSB to achieve an OD600˜0.1. Two hundred micro liter of the diluted culture was added to 1.8 ml of TSB media aliquoted into each well of a 24 well plate (˜5×10^5 CFU). The plates were kept at 37° C. under static conditions for 18 h, the contents were aspirated, the wells were washed twice with 2.0 ml of 1×PBS, and 1 mL of media+1 mL of the drug was added to each well and incubated at 37° C. for 0, 2, 4, and 24 h. TSB supplemented with 50 μg/ml Ca^++ was used for daptomycin treatment wells. The contents were aspirated out at the stipulated time points and the wells were washed with 2 ml of 1×PBS. The wells were allowed to dry at 37° C. for 15 min and stained with 1 mL of 1% CV for 5 min. The wells were washed with 1 mL of 1×PBS, air dried and observed for intensity of blue color.
# 0.1% CV was used for staining biofilms. Post staining and washing steps, 1 mL 30% acetic acid is added to each well, incubated in RT for 5-10 min, contents in the well are mixed thoroughly and OD was read at 570 nm.
# [2] = tested on: S. haemolyticus B9511 biofilms; test: MBIC and checkerboard synergy on preformed biofilm (MTT assay); assay type: cell-based; conditions: S. haemolyticus B9511 72 h preformed biofilm, 6 hr treatment
# Description: (§1) […] LB supplemented with 50 μg/mL Ca^++ was used for daptomycin treatment wells. The contents of the well was aspirated out and discarded. The biofilm adhered to the wells was quantified by MTT assay as described above. In each experiment, in addition to the combination MBIC, the MBIC of each drug was also determined individually. The fractional MBIC concentrations were determined by MTT dye method as described above. The FICI and synergy was calculated.
# [3] = tested on: S. aureus BK18 and B9377 persisters; test: P128 and antibiotic activity on persisters (CFU); assay type: cell-based, Staphylococcus aureus; conditions: 1×MIC, P128 1 h, antibiotics 6 h
# Description: Persisters were generated as above were treated with P128 and antibiotics (Ref: Gutiérrez, et al. (2014) Effective Removal of Staphylococcal Biofilms by the Endolysin LysH5 PLoS One 9(9): e107307).
# To 450 μL aliquots, P128. Daptomycin and Vancomycin (in saline) were added (individually) each at 1×MIC Conc., and another 450 μL aliquot was taken as control. The persister samples treated with P128 were incubated for 1 h, 37° C., and 200 rpm and those treated with antibiotics were incubated for 6 h, 37° C., and 200 rpm. After incubation samples were serially log diluted and plated.
# S. aureus biofilm = test: Bactericidal activity on biofilm (CFU reduction); assay type: cell-based, Staphylococcus aureus; conditions: S. aureus MW2 biofilm on catheters; P128 8 μg/mL; daptomycin 10 μg/mL; vancomycin 15 μg/mL
# Description: In order to determine whether P128 could also act as a bactericidal agent in biofilms, the CFU reduction were monitored in S. aureus ATCC 29213 72 h preformed biofilms treated with various concentrations of P128 for 6 h. For CFU enumeration in catheter biofilm, the catheters were removed from the tubes, rinsed twice in PBS and placed in eppendorf tubes containing 1 mL PBS. To release the adhered biofilm into PBS, the catheters were scraped using inoculation loop. The samples were vortexed thoroughly and plated on LB agar plates.
# S. aureus biofilms = test: MBIC and checkerboard synergy on preformed biofilm (MTT assay); assay type: cell-based, Staphylococcus aureus; conditions: for MIC (drug alone) on biofilm: S. aureus MW2 72 h preformed biofilm, 6 hr treatment; for Activity on biofilms: S. aureus MW2 biofilm, drug alone
# Description: as §1, with “50 μg/mL CaCl2 was used” for “50 μg/mL Ca^++ was used”, “described above. The MBIC was defined as the minimum concentration of P128 or the drug showing no colour development. […] In each” for “described above. In each”, “synergy was also calculated in a similar manner.” for “synergy was calculated.”
# The ability of P128 to inhibit growth of S. aureus in a preformed biofilm was measured by determining minimum biofilm inhibition concentration (MBIC), defined as minimum concentration showing growth inhibition in a MTT based assay. […] 11:226.
# The assay was optimized using the standard S. aureus strain ATCC 29213. An overnight-grown culture of the strain was diluted 1:40 in LB broth 200 μL of diluted culture was aliquoted into microtiter plate wells. Microplates were placed in a shaker-incubator set to 37° C., and 100 rpm for 24 h followed by 48 h incubation under static conditions at 37° C. The contents of one set of four wells were aspirated and discarded. Wells were washed twice with 1×PBS and the presence of biofilm in the wells at the end of this 72-hour period was determined by metabolic dye-reduction assay method using MTT (3-(4, 5-dimethylthiazol-5-diphenyltetrazolium bromide; Himedia). In this assay, live cells reduce the dye leading to color formation which can be read at 570 nm, and the intensity of color can be correlated to number of live cells. 100 μL of PBS was added to the wells along with 10 μL of MTT solution. The plate was incubated for 2 h in the dark. After this, 110 μL of solvent solution solubilizing agent was added and the plate was incubated for 15 minutes at ambient temperature with gentle agitation. The absorbance was read at 570 nm in a microplate reader. Another set of four wells was processed for harvesting the biofilm and determination of CFUs present by plating on solid media. For biofilm inhibitory studies, the wells were washed twice with 1×PBS and challenged with various concentrations of P128 or other antibiotic drugs and incubated for 24 h at 37° C. The contents of the well was aspirated out and discarded. The biofilm adhered to the wells was quantified by MTT assay as described above. The MBIC was defined as the minimum concentration of P128 or the drug showing no colour development. […] In each experiment, in addition to the combination MBIC, the MBIC of each drug was also determined individually. The fractional MBIC concentrations were determined by MTT dye method as described above. The FICI and synergy was also calculated in a similar manner.
# In order to determine whether P128 could synergize with known anti-Staphylococcus drugs to inhibit S. aureus in biofilms. […] The assays were performed in a 96 well checkerboard format using various concentrations of P128 and one of the antibiotics.
Structure (SMILES),"Activity on preformed biofilm, crystal violet [1]",MBIC (drug alone) [2] [µg/mL],CFU/mL after treatment of persisters ([3]; B9377 Daptomycin persisters),CFU/mL after treatment of persisters ([3]; B9377 Vancomycin persisters),CFU/mL after treatment of persisters ([3]; BK18 Daptomycin persisters),CFU/mL after treatment of persisters ([3]; BK18 Vancomycin persisters),Reduction in CFU counts (S. aureus biofilm),MIC (drug alone) on biofilm (S. aureus biofilms) [µg/mL],Activity on biofilms (S. aureus biofilms),"MBIC (individual) (S. aureus biofilms; Table 4, S. aureus ATCC 29213 preformed biofilm, 6 h) [µg/mL]","MBIC (individual) (S. aureus biofilms; Table 4, S. aureus ATCC 29213 preformed biofilm, 24 h) [µg/mL]","MBIC (individual) (S. aureus biofilms; Table 4, S. aureus B9241 preformed biofilm, 6 h) [µg/mL]","MBIC (individual) (S. aureus biofilms; Table 4, S. aureus B9241 preformed biofilm, 24 h) [µg/mL]","MBIC (individual) (S. aureus biofilms; Table 4, S. aureus BK1 preformed biofilm, 6 h) [µg/mL]","MBIC (individual) (S. aureus biofilms; Table 4, S. aureus BK1 preformed biofilm, 24 h) [µg/mL]"
"CCCCCCCCCC(=O)N[C@@H](Cc1c[nH]c2ccccc12)C(=O)N[C@H](CC(N)=O)C(=O)N[C@@H](CC(=O)O)C(=O)N[C@@H]1C(=O)NCC(=O)N[C@@H](CCCN)C(=O)N[C@@H](CC(=O)O)C(=O)N[C@H](C)C(=O)N[C@@H](CC(=O)O)C(=O)NCC(=O)N[C@H](CO)C(=O)N[C@@H]([C@H](C)CC(=O)O)C(=O)N[C@@H](CC(=O)c2ccccc2N)C(=O)O[C@@H]1C [Daptomycin, daptomycin]",poor activity,>250,1 × 10^2 CFU/mL,6 × 10^5 CFU/mL,1 × 10^1 CFU/mL,7.5 × 10^5 CFU/mL,1 log,31.2,relatively better activity,–,–,–,–,–,–
"CC(=O)NC[C@H]1CN(c2ccc(N3CCOCC3)c(F)c2)C(=O)O1 [Linezolid, linezolid]",poor activity,>250,–,–,–,–,–,>500,poorly effective,–,–,–,–,–,–
"CN[C@H](CC(C)C)C(=O)N[C@H]1C(=O)N[C@@H](CC(N)=O)C(=O)N[C@H]2C(=O)N[C@H]3C(=O)N[C@H](C(=O)N[C@H](C(=O)O)c4cc(O)cc(O)c4-c4cc3ccc4O)[C@H](O)c3ccc(c(Cl)c3)Oc3cc2cc(c3O[C@@H]2O[C@H](CO)[C@@H](O)[C@H](O)[C@H]2O[C@H]2C[C@](C)(N)[C@H](O)[C@H](C)O2)Oc2ccc(cc2Cl)[C@H]1O [Vancomycin, vancomycin]",poor activity,>250,2.6 × 10^2 CFU/mL,4 × 10^5 CFU/mL,1 × 10^1 CFU/mL,8 × 10^5 CFU/mL,no significant effect,250,poorly effective,7.8,218.75,31.25,125,31.25,250
